Where two headings read alike, the source gives them in different places.
Tests used:
[1] = biological target: A2B receptors endogenously expressed in HEK293 cells (Homo sapiens (Human), UniProt P29275); experiment: cAMP assay (a), HEK293 cells with A2B receptors endogenously expressed; type: cell-based; conditions: stimulated with 5 μM NECA
Description: (§1) Two assays have been employed, one using HEK293 with A2B receptors endogenously expressed (named cAMP assay (a) in the following) and a second one using HEK293 cells impressing recombinant human A2B receptors (named cAMP assay (b) in the following)
Real-time cAMP-assays in live cells were performed in HEK293 cells stably expressing the EPAC-sensor (I. Vedel, et al., 2015, J. Biomol. Screen. 20, 849-857).
In order to test for cAMP inhibition by preferred compounds of formula I and antagonists, respectively, from this invention, endogenous A2A and A2B expression in above cell lines was exploited. To run the assay, cells were incubated in 80 μl assay buffer for 15 minutes at room temperature. The assay buffer was composed of Hanks Balanced Salt Solution (Gibco) with 20 mM HEPES, pH 7.4 and […] adenosine-deaminase. All cAMP assays were run at room temperature using a PHERAstar FSX plate reader. The FRET donor (mCerulean) was excited at 430 nm. Fluorescence emission was measured at 480 nm and 530 nm for 65 minutes (cycle time 1.45 min). Prior to stimulation fluorescence was measured for 10 min (baseline). Subsequently cells were stimulated with 5 μM NECA (5′-(N-Ethylcarboxamido)adenosine; Tocris, Cat.-No:35920-39-9). Sharply 10.15 min after stimulation the compounds were added at increasing concentrations (between 0 and 200 μM) and fluorescence was recorded for 40 min. Each compound concentration was measured in duplicates.

[2] = biological target: human thermostabilised A2B receptor; experiment: Wave Guided Interferometry (WGI); type: binding; conditions: 1:1 interaction model
Description: Biophysical Assays: A2B and A2A receptors used for biophysical measurements were produced using baculovirus mediated expression in insect cells. Expression constructs for both receptors contained point mutations that increased receptor thermal stability. Thermostabilised A2B and A2A receptors were solubilized using mild detergents (DDM and DM, respectively) and purified by standard purification methods. A2B receptor was purified in the buffer containing: 40 mM Tris-HCl pH 7.4, 200 mM NaCl, 0.05% DDM, and 0.005% CHS. A2A receptor was purified in the buffer containing: 40 mM Tris-HCl pH 7.4, 200 mM NaCl, 0.15% DM, and 0.002% CHS.
WGI experiments with A2B receptor were performed using the Wave delta instrument (Creoptix AG), a label free surface biosensor. Purified A2B protein was immobilized on 4PCP-N chips (Creoptix, quasi planar NTA functionalized polycarboxylate surface) at typical levels between […]. Running buffer was 25 mM Tris-HCl pH 7.5, 350 mM NaCl, 0.1% DDM, and 2% DMSO. The procedure started with 40 start-up cycles in order to equilibrate and stabilize the surface. Once start-up cycles were performed, different concentrations of compounds (diluted in running buffer, and adjusted depending on the kinetic characteristics) were injected in a multi cycle kinetic mode with typical association time of 120 s and dissociation time of 240 s. A DMSO calibration (typically 5 concentrations between 1 and 3% DMSO) was performed for every experiment in order to calibrate DMSO levels as well as to estimate the missing volume taken by the protein on the chip. Data were evaluated with Creoptix Wave software (Creoptix AG). All final signals are double referenced with injections of same compound concentrations on a reference channel and with buffer injections on the active channel (where protein is immobilized) and fitted with a 1:1 interaction model in order to obtain KD values.

human A2B receptor [3] = biological target: T1, human A2B receptor (Homo sapiens (Human), UniProt P29275); experiment: Radioligand binding competition assay, [3H]-DPCPX, membranes from HEK293 cells transfected with human A2B receptor
Description: (§2) For all four adenosine receptors (A1, A2A, A2B and A3) filtration binding assay was performed. Radioligand binding competition assay was done in duplicates in the wells of a 96-well plate (Master Block, Greiner, 786201) containing binding buffer, receptor membrane extracts, a fixed concentration of tracer and test compound at increasing concentrations. In order to eliminate effect of buffer components, binding buffer was the same for all four receptors and contained: 50 mM Tris-HCl pH 7.4, 5 mM MgCl2, 1 mM EDTA, 150 mM NaCl, 0.1% Na-azide, and 5 U/ml adenosine-deaminase. Nonspecific binding was determined by co-incubation with 200-fold excess of cold competitor. In all radioligand binding experiments, the samples were incubated in a final volume of 0.1 ml for 60 minutes at 25° C. and then filtered over Unifilter plates (Perkin Elmer) pre-treated for 2 hours to limit tracer non-specific binding. Filters were washed five times with 0.5 ml of ice-cold washing buffer (50 mM Tris-HCl pH 7.4, 5 mM MgCl2, 1 mM EDTA) and 50 μl of Microscint 20 (Perkin Elmer) were added to each filter. The plates are incubated 15 min at room temperature on an orbital shaker and then counted with a TopCount™ for 1 min/well.
For A2B, the assay was carried with [^3H]-DPCPX and membranes prepared from HEK293 cells transfected with human A2B receptor (Euroscreen FAST-003B).

human A2A receptor = human A2A receptor (Homo sapiens (Human), UniProt P29274); experiment: Radioligand binding competition assay, [3H]-NECA, membranes from HEK293 cells transfected with human A2A receptor; conditions: for Human A2A Receptor pKi / IC50: radioligand binding
Description: as §2
For A2A receptor the assay was performed with [^3H]-NECA and membranes from HEK293 cells transfected with human A2A receptor (Euroscreen FAST-002B).

human A1 receptor = human A1 receptor (Homo sapiens (Human), UniProt P30542); experiment: Radioligand binding competition assay, [3H]-DPCPX, membranes from CHO-K1 cells transfected with human A1 receptor
Description: as §2
For A1 receptor the assay was performed with [^3H]-DPCPX and membranes from CHO-K1 cells transfected with human A1 receptor (Euroscreen FAST-00B).

human A3 receptor = human A3 receptor (Homo sapiens (Human), UniProt P0DMS8); experiment: Radioligand binding competition assay, [125I]-MECA, membranes from CHO-K1 cells transfected with human A3 receptor
Description: as §2
For A3, the assay was carried out with [^125I]-MECA and membranes from CHO-K1 cells transfected with human A3 receptor (Euroscreen FAST-004B).

human A2B receptor [4] = biological target: T1, human A2B receptor; experiment: cAMP assay (b), HEK293 cells expressing recombinant human A2B receptor; type: cell-based; conditions: reference agonist at EC80, read-out: cAMP pIC50 (converted)
Description: as §1
Dose response curves were performed in parallel with the reference compounds. 12 μl of cells were mixed with 6 μl of the test compound at increasing concentrations and then incubated 10 min. Thereafter 6 μl of the reference agonist was added at a final concentration corresponding to the historical EC80. The plates were then incubated for 30 min at room temperature. After addition of the lysis buffer and 1 hour incubation, cAMP concentrations were estimated, according to the manufacturer specification, with the HTRF kit.

[5] = read-out: cAMP pIC50 (converted)

Chain of human A3 receptor (P0DMS8 whole entry): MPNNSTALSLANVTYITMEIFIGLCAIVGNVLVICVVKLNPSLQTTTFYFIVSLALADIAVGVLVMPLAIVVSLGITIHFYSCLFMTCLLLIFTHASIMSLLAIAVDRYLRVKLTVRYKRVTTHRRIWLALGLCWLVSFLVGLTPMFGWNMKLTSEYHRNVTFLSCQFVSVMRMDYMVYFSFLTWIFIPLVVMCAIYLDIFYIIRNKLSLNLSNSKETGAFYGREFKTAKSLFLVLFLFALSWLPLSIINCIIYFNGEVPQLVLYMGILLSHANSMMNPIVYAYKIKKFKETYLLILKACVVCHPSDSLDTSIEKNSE
Chain of human A2A receptor (P29274 whole entry): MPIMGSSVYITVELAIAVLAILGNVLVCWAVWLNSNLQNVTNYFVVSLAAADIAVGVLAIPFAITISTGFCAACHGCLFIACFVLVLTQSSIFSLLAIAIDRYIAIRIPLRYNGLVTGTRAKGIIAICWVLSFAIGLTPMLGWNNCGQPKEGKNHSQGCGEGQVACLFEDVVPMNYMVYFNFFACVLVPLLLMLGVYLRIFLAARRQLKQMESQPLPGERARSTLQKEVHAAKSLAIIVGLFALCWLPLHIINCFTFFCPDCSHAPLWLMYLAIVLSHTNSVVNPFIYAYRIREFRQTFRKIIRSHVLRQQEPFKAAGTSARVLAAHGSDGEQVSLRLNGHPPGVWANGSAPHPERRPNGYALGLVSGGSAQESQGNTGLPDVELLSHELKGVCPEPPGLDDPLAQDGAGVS
Chain of human A1 receptor (P30542 whole entry): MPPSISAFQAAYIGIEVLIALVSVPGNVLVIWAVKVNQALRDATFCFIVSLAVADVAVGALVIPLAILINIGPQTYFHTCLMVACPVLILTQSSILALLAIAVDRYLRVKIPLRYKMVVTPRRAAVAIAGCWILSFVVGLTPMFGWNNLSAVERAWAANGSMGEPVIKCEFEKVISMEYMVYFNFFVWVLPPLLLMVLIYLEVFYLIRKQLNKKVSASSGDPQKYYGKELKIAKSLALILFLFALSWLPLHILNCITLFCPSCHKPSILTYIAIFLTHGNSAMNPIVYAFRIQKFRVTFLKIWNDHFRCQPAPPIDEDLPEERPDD
Chain of A2B receptors endogenously expressed in HEK293 cells (P29275 whole entry): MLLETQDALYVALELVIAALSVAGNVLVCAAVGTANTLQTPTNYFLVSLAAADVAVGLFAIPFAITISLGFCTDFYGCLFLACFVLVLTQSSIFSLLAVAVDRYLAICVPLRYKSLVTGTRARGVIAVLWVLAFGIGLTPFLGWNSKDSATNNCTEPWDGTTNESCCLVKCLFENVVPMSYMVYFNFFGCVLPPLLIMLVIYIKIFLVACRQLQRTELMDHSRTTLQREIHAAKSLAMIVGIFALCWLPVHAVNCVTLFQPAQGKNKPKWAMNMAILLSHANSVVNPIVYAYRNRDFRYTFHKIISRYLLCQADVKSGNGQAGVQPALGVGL
T1 sequence (P29275 whole entry): as above

Row | IC50 [1] | IC50 [1, 5] | Kd [2] | Human A2B Receptor pKi (human A2B receptor [3]) | IC50 (human A2B receptor [3]) | Human A2A Receptor pKi (human A2A receptor) | IC50 (human A2A receptor) | Human A1 Receptor pKi (human A1 receptor) | IC50 (human A1 receptor) | Human A3 Receptor pKi (human A3 receptor) | IC50 (human A3 receptor) | inhibition at 50 µM (human A2A receptor) | IC50 (human A2B receptor [4]) | Structure (SMILES)
1 | 400 nM | 398 nM | 500 nM | 6.55 | 320 nM | 4.73 | 18500 nM | 5.02 | 19000 nM |  |  |  |  | Fc1cnccc1-c1nnc(Nc2cccnc2)nc1-c1cccnc1 [Example 1, 6-(3-fluoropyridin-4-yl)-N,5-di(pyridin-3-yl)-1,2,4-triazin-3-amine]
2 | 630 nM | 631 nM | 1000 nM | 6.99 | 120 nM | 4.9 | 12700 nM | 5.43 | 7440 nM |  |  |  |  | Fc1cccc(Nc2nnc(-c3ccncc3F)c(-c3cccnc3)n2)c1 [Example 2, N-(3-fluorophenyl)-6-(3-fluoropyridin-4-yl)-5-(pyridin-3-yl)-1,2,4-triazin-3-amine]
3 |  |  | 1000 nM | 6.5 | 360 nM | 5.48 | 3280 nM |  |  |  |  |  |  | Fc1cnccc1-c1nnc(Nc2nc(Cl)cs2)nc1-c1cccnc1 [Example 4, 4-chloro-N-(6-(3-fluoropyridin-4-yl)-5-(pyridin-3-yl)-1,2,4-triazin-3-yl)thiazol-2-amine]
4 |  |  | 130 nM |  |  |  |  |  |  |  |  |  |  | Fc1ccccc1-c1nc(Nc2cccnc2)nnc1-c1ccnc(C(F)(F)F)c1 [Example 8, 5-(2-fluorophenyl)-N-(pyridin-3-yl)-6-(2-(trifluoromethyl)pyridin-4-yl)-1,2,4-triazin-3-amine]
5 |  |  | 470 nM |  |  |  |  |  |  |  |  |  |  | Cc1nsc(Nc2nnc(-c3ccnc(C(F)(F)F)c3)c(-c3ccccc3F)n2)n1 [Example 11, N-(5-(2-fluorophenyl)-6-(2-(trifluoromethyl)pyridin-4-yl)-1,2,4-triazin-3-yl)-3-methyl-1,2,4-thiadiazol-5-amine]
6 |  |  | 240 nM | 6.93 | 460 nM | <4.70 |  | 5.96 | 2200 nM | 4.68 | 27100 nM | 54% |  | Cc1cc(Nc2nnc(-c3ccncc3F)c(-c3ccccc3F)n2)[nH]n1 [Example 14, 5-(2-fluorophenyl)-6-(3-fluoropyridin-4-yl)-N-(3-methyl-1H-pyrazol-5-yl)-1,2,4-triazin-3-amine]
7 |  |  | 120 nM | 6.82 | 170 nM | 4.4 | 39400 nM | 6.23 | 1180 nM | 4.48 | 43500 nM |  | 501 nM | Cc1n[nH]c(Nc2nnc(-c3ccncc3F)c(-c3ccccc3F)n2)n1 [Example 15, 5-(2-fluorophenyl)-6-(3-fluoropyridin-4-yl)-N-(3-methyl-1H-1,2,4-triazol-5-yl)-1,2,4-triazin-3-amine]
8 |  |  | 100 nM | 6.84 | 160 nM | <4.70 |  | 5.73 | 3790 nM | 5.14 | 9520 nM | 48% |  | CNC(=O)Nc1nnc(-c2ccncc2F)c(-c2ccccc2F)n1 [Example 16, 1-(5-(2-fluorophenyl)-6-(3-fluoropyridin-4-yl)-1,2,4-triazin-3-yl)-3-methylurea]
9 |  |  |  | 7.76 |  | 5.66 |  | 6.19 |  | 6.52 |  |  | 41.7 nM | OCc1ncc(Nc2nnc(-c3ccncc3F)c(-c3ccccc3F)n2)cn1 [Example 39, (5-{[5-(2-fluorophenyl)-6-(3-fluoropyridin-4-yl)-1,2,4-triazin-3-yl]amino}pyrimidin-2-yl)methanol]

From US12391670B2, “Functionalized aminotriazines” (LEADXPRO AG, priority 2018, dated 2025)
